According to US20240415914A1, “Water Dispersible Cannabinoid Compositions” (priority 2021, published 2024):
Read-outs that look alike come from different tables or passages of the source.

Legend:
[1] = Stability of cannabinoid and Vitamin E components of Beverage 2 (AB Red) stored at 8° C. and 21-25° C., LCMSMS over 570 days
Procedure: The LCMSMS was calibrated for 0-50 ng/ml cannabinoids with the same resin material used in the preparation of the concentrates. At each time period, 100 μml of beverage was diluted with 10 ml of methanol and injected into the LCMSMS for analysis.

[2] = format: physicochemical; details: stored at room temperature (21-25° C.)
Procedure: At each time period, 0.05 g of powder was dissolved in 10 ml-15 of ethanol, diluted to fall within the analytical range, and injected into the LCMSMS for analysis.

CCCCCc1cc2c(c(O)c1C(=O)O)[C@@H]1C=C(C)CC[C@H]1C(C)(C)O2 [D9 THCA, delta-9-tetrahydrocannabinolic acid]
Stability of Cannabinoids in AB Red ([1]; 8° C., 0 days): 1.35 µg/mL
Stability of Cannabinoids in AB Red ([1]; 8° C., 1 days): 1.34 µg/mL
Stability of Cannabinoids in AB Red ([1]; 8° C., 2 days): 1.34 µg/mL
Stability of Cannabinoids in AB Red ([1]; 8° C., 3 days): 1.35 µg/mL
Stability of Cannabinoids in AB Red ([1]; 8° C., 5 days): 1.36 µg/mL
Stability of Cannabinoids in AB Red ([1]; 8° C., 8 days): 1.35 µg/mL
Stability of Cannabinoids in AB Red ([1]; 8° C., 9 days): 1.36 µg/mL
Stability of Cannabinoids in AB Red ([1]; 8° C., 10 days): 1.35 µg/mL
Stability of Cannabinoids in AB Red ([1]; 8° C., 11 days): 1.35 µg/mL
Stability of Cannabinoids in AB Red ([1]; 8° C., 12 days): 1.32 µg/mL
Stability of Cannabinoids in AB Red ([1]; 8° C., 15 days): 1.33 µg/mL
Stability of Cannabinoids in AB Red ([1]; 8° C., 16 days): 1.31 µg/mL
Stability of Cannabinoids in AB Red ([1]; 8° C., 17 days): 1.34 µg/mL
Stability of Cannabinoids in AB Red ([1]; 8° C., 18 days): 1.35 µg/mL
Stability of Cannabinoids in AB Red ([1]; 8° C., 19 days): 1.32 µg/mL
Stability of Cannabinoids in AB Red ([1]; 8° C., 22 days): 1.34 µg/mL
Stability of Cannabinoids in AB Red ([1]; 8° C., 23 days): 1.33 µg/mL
Stability of Cannabinoids in AB Red ([1]; 8° C., 24 days): 1.33 µg/mL
Stability of Cannabinoids in AB Red ([1]; 8° C., 25 days): 1.34 µg/mL
Stability of Cannabinoids in AB Red ([1]; 8° C., 26 days): 1.33 µg/mL
Stability of Cannabinoids in AB Red ([1]; 8° C., 29 days): 1.35 µg/mL
Stability of Cannabinoids in AB Red ([1]; 8° C., 30 days): 1.31 µg/mL
Stability of Cannabinoids in AB Red ([1]; 8° C., 60 days): 1.32 µg/mL
Stability of Cannabinoids in AB Red ([1]; 8° C., 90 days): 1.34 µg/mL
Stability of Cannabinoids in AB Red ([1]; 8° C., 120 days): 1.30 µg/mL
Stability of Cannabinoids in AB Red ([1]; 8° C., 150 days): 1.34 µg/mL
Stability of Cannabinoids in AB Red ([1]; 8° C., 180 days): 1.30 µg/mL
Stability of Cannabinoids in AB Red ([1]; 8° C., 210 days): 1.33 µg/mL
Stability of Cannabinoids in AB Red ([1]; 8° C., 240 days): 1.32 µg/mL
Stability of Cannabinoids in AB Red ([1]; 8° C., 270 days): 1.33 µg/mL
Stability of Cannabinoids in AB Red ([1]; 8° C., 300 days): 1.30 µg/mL
Stability of Cannabinoids in AB Red ([1]; 8° C., 330 days): 1.34 µg/mL
Stability of Cannabinoids in AB Red ([1]; 8° C., 390 days): 1.29 µg/mL
Stability of Cannabinoids in AB Red ([1]; 8° C., 420 days): 1.29 µg/mL
Stability of Cannabinoids in AB Red ([1]; 8° C., 450 days): 1.31 µg/mL
Stability of Cannabinoids in AB Red ([1]; 8° C., 480 days): 1.28 µg/mL
Stability of Cannabinoids in AB Red ([1]; 8° C., 510 days): 1.25 µg/mL
Stability of Cannabinoids in AB Red ([1]; 8° C., 540 days): 1.26 µg/mL
Stability of Cannabinoids in AB Red ([1]; 8° C., 570 days): 1.24 µg/mL
Stability of Cannabinoids in AB Red ([1]; 21-25° C., 0 days): 1.35 µg/mL
Stability of Cannabinoids in AB Red ([1]; 21-25° C., 1 days): 1.34 µg/mL
Stability of Cannabinoids in AB Red ([1]; 21-25° C., 2 days): 1.30 µg/mL
Stability of Cannabinoids in AB Red ([1]; 21-25° C., 3 days): 1.32 µg/mL
Stability of Cannabinoids in AB Red ([1]; 21-25° C., 5 days): 1.36 µg/mL
Stability of Cannabinoids in AB Red ([1]; 21-25° C., 8 days): 1.36 µg/mL
Stability of Cannabinoids in AB Red ([1]; 21-25° C., 9 days): 1.35 µg/mL
Stability of Cannabinoids in AB Red ([1]; 21-25° C., 10 days): 1.33 µg/mL
Stability of Cannabinoids in AB Red ([1]; 21-25° C., 11 days): 1.33 µg/mL
Stability of Cannabinoids in AB Red ([1]; 21-25° C., 12 days): 1.33 µg/mL
Stability of Cannabinoids in AB Red ([1]; 21-25° C., 15 days): 1.30 µg/mL
Stability of Cannabinoids in AB Red ([1]; 21-25° C., 16 days): 1.36 µg/mL
Stability of Cannabinoids in AB Red ([1]; 21-25° C., 17 days): 1.35 µg/mL
Stability of Cannabinoids in AB Red ([1]; 21-25° C., 18 days): 1.36 µg/mL
Stability of Cannabinoids in AB Red ([1]; 21-25° C., 19 days): 1.31 µg/mL
Stability of Cannabinoids in AB Red ([1]; 21-25° C., 22 days): 1.34 µg/mL
Stability of Cannabinoids in AB Red ([1]; 21-25° C., 23 days): 1.36 µg/mL
Stability of Cannabinoids in AB Red ([1]; 21-25° C., 24 days): 1.30 µg/mL
Stability of Cannabinoids in AB Red ([1]; 21-25° C., 25 days): 1.35 µg/mL
Stability of Cannabinoids in AB Red ([1]; 21-25° C., 26 days): 1.32 µg/mL
Stability of Cannabinoids in AB Red ([1]; 21-25° C., 29 days): 1.33 µg/mL
Stability of Cannabinoids in AB Red ([1]; 21-25° C., 30 days): 1.34 µg/mL
Stability of Cannabinoids in AB Red ([1]; 21-25° C., 60 days): 1.28 µg/mL
Stability of Cannabinoids in AB Red ([1]; 21-25° C., 90 days): 1.34 µg/mL
Stability of Cannabinoids in AB Red ([1]; 21-25° C., 120 days): 1.34 µg/mL
Stability of Cannabinoids in AB Red ([1]; 21-25° C., 150 days): 1.28 µg/mL
Stability of Cannabinoids in AB Red ([1]; 21-25° C., 180 days): 1.30 µg/mL
Stability of Cannabinoids in AB Red ([1]; 21-25° C., 210 days): 1.33 µg/mL
Stability of Cannabinoids in AB Red ([1]; 21-25° C., 240 days): 1.31 µg/mL
Stability of Cannabinoids in AB Red ([1]; 21-25° C., 270 days): 1.27 µg/mL
Stability of Cannabinoids in AB Red ([1]; 21-25° C., 300 days): 1.27 µg/mL
Stability of Cannabinoids in AB Red ([1]; 21-25° C., 330 days): 1.28 µg/mL
Stability of Cannabinoids in AB Red ([1]; 21-25° C., 390 days): 1.26 µg/mL
Stability of Cannabinoids in AB Red ([1]; 21-25° C., 420 days): 1.26 µg/mL
Stability of Cannabinoids in AB Red ([1]; 21-25° C., 450 days): 1.31 µg/mL
Stability of Cannabinoids in AB Red ([1]; 21-25° C., 480 days): 1.29 µg/mL
Stability of Cannabinoids in AB Red ([1]; 21-25° C., 510 days): 1.27 µg/mL
Stability of Cannabinoids in AB Red ([1]; 21-25° C., 540 days): 1.29 µg/mL
Stability of Cannabinoids in AB Red ([1]; 21-25° C., 570 days): 1.24 µg/mL
Stability in Powder Concentrate (content by LCMSMS) ([2]; day 0): 0.150 mg/g powder
Stability in Powder Concentrate (content by LCMSMS) ([2]; day 1): 0.150 mg/g powder
Stability in Powder Concentrate (content by LCMSMS) ([2]; day 2): 0.147 mg/g powder
Stability in Powder Concentrate (content by LCMSMS) ([2]; day 3): 0.150 mg/g powder
Stability in Powder Concentrate (content by LCMSMS) ([2]; day 5): 0.146 mg/g powder
Stability in Powder Concentrate (content by LCMSMS) ([2]; day 8): 0.156 mg/g powder
Stability in Powder Concentrate (content by LCMSMS) ([2]; day 9): 0.151 mg/g powder
Stability in Powder Concentrate (content by LCMSMS) ([2]; day 10): 0.148 mg/g powder
Stability in Powder Concentrate (content by LCMSMS) ([2]; day 11): 0.145 mg/g powder
Stability in Powder Concentrate (content by LCMSMS) ([2]; day 12): 0.152 mg/g powder
Stability in Powder Concentrate (content by LCMSMS) ([2]; day 15): 0.151 mg/g powder
Stability in Powder Concentrate (content by LCMSMS) ([2]; day 16): 0.157 mg/g powder
Stability in Powder Concentrate (content by LCMSMS) ([2]; day 17): 0.156 mg/g powder
Stability in Powder Concentrate (content by LCMSMS) ([2]; day 18): 0.149 mg/g powder
Stability in Powder Concentrate (content by LCMSMS) ([2]; day 19): 0.146 mg/g powder
Stability in Powder Concentrate (content by LCMSMS) ([2]; day 22): 0.150 mg/g powder
Stability in Powder Concentrate (content by LCMSMS) ([2]; day 23): 0.147 mg/g powder
Stability in Powder Concentrate (content by LCMSMS) ([2]; day 24): 0.150 mg/g powder
Stability in Powder Concentrate (content by LCMSMS) ([2]; day 25): 0.150 mg/g powder
Stability in Powder Concentrate (content by LCMSMS) ([2]; day 26): 0.150 mg/g powder
Stability in Powder Concentrate (content by LCMSMS) ([2]; day 29): 0.152 mg/g powder
Stability in Powder Concentrate (content by LCMSMS) ([2]; day 30): 0.151 mg/g powder
Stability in Powder Concentrate (content by LCMSMS) ([2]; day 60): 0.146 mg/g powder
Stability in Powder Concentrate (content by LCMSMS) ([2]; day 90): 0.147 mg/g powder
Stability in Powder Concentrate (content by LCMSMS) ([2]; day 120): 0.147 mg/g powder
Stability in Powder Concentrate (content by LCMSMS) ([2]; day 150): 0.153 mg/g powder
Stability in Powder Concentrate (content by LCMSMS) ([2]; day 180): 0.154 mg/g powder
Stability in Powder Concentrate (content by LCMSMS) ([2]; day 210): 0.151 mg/g powder
Stability in Powder Concentrate (content by LCMSMS) ([2]; day 240): 0.148 mg/g powder
Stability in Powder Concentrate (content by LCMSMS) ([2]; day 270): 0.148 mg/g powder
Stability in Powder Concentrate (content by LCMSMS) ([2]; day 300): 0.156 mg/g powder
Stability in Powder Concentrate (content by LCMSMS) ([2]; day 330): 0.156 mg/g powder
Stability in Powder Concentrate (content by LCMSMS) ([2]; day 360): 0.155 mg/g powder
Stability in Powder Concentrate (content by LCMSMS) ([2]; day 390): 0.153 mg/g powder
Stability in Powder Concentrate (content by LCMSMS) ([2]; day 420): 0.154 mg/g powder
Stability in Powder Concentrate (content by LCMSMS) ([2]; day 450): 0.155 mg/g powder
Stability in Powder Concentrate (content by LCMSMS) ([2]; day 480): 0.149 mg/g powder
Stability in Powder Concentrate (content by LCMSMS) ([2]; day 510): 0.154 mg/g powder
Stability in Powder Concentrate (content by LCMSMS) ([2]; day 540): 0.154 mg/g powder
Stability in Powder Concentrate (content by LCMSMS) ([2]; day 570): 0.148 mg/g powder
